A short description of series [1]: PK study using rats, oral administration, plasma levels by HPLC-MS/MS. The series is classed as in vivo, Sprague–Dawley rats. The note with it: oral (gavage) 25 mg/kg, mean ± SD; for Tmax / AUC(0-t) / Cmax / half-life / k el / MRT last: Sprague-Dawley; for Tmax / AUC(0-t): rat, plasma, po, 25 mg/kg; for Cmax / half-life / k el / MRT last / CL / V: rat plasma; for k el: read-out: Ke (converted); for MRT last: read-out: MRT0−t (converted). As to the method: HPLC analysis was performed using the Dionex UltiMate 3000 HPLC equipped with a binary pump, an on-line degasser, an auto-sampler and a column temperature controller. The chromatographic separations were performed using a Hypersil GOLD C18 column (100 mm × 2.1 mm, 1.9 μm particle size) protected by a C18 guard column (10 mm × 2.1 mm, 5 μm) at 40°C. The mobile phase consisted of acetonitrile:0.1% formic acid (65:35, v/v). The flow rate was set at 0.2 ml/min. Aliquots of 2 μl were injected into the HPLC system for analysis.
MS analysis was performed using a Thermo Scientific TSQ Quantum Access MAX triple-stage quadrupole mass spectrometer equipped with an electrospray ionization (ESI) source in the positive-ionization mode. The typical ion source parameters were as follows: spray voltage: 3500 V; sheath gas pressure (N2): 20 units; auxiliary gas pressure (N2): 5 units; ion transfer tube temperature: 350°C; collision gas (Ar): 1.5 mTorr; Q1/Q3 peak resolution: 0.7 Da; and scan width: 0.002 Da. The samples were analyzed via selective-reaction monitoring (SRM) of the ion pairs at m/z 343 → 148 for 3MBM, m/z 343 → 148 for 4MBM, or m/z 166 → 133 for the IS. The scan dwell time was set at 0.1 s for every channel. All data collected in the centroid mode were acquired and processed using Xcalibur 2.2 software (Thermo Fisher Scientific, Inc., USA).
Each plasma sample (100 μl) was mixed with 20 μl of the working IS solution in a 1.5-ml labeled microcentrifuge tube and was vortexed for 5 s. Then, 1000 μl of isopropanol:ethyl acetate (v/v, 25:75) was added, and each sample was vortexed for 1 min. Each tube was subsequently centrifuged at 12,000 × g for 10 min. The organic layer was transferred to another tube and evaporated to dryness at ambient temperature under a gentle stream of nitrogen. The residue was reconstituted in 100 μl of the mobile phase, and 2 μl of each sample was injected into the HPLC–MS/MS system for analysis.
Aqueous solutions of 3MBM and 4MBM were separately administered to 12 rats via gavage at 25 mg/kg (2.5 mg/ml aqueous solutions), which was equivalent to the dose administered to mice in our previous study. Serial blood samples (0.5 ml) were obtained at 0, 15, 30, 45, 60, 90, 120, 150, 240, 600, 960, and 1440 min after oral administration. All samples were placed in heparinized tubes. After centrifugation at 12,000 rpm and 4°C for 10 min, the plasma was collected and frozen at −20°C until analysis. The PK parameters were estimated according to a non-compartmental model using the TopFit 2.0 software package (Thomae, Germany). The elimination half-life (t1/2) was 0.693/ke, where ke, the elimination rate constant, was calculated by fitting the mean data at four terminal points of the plasma concentration profile to a log-linear regression equation using the least-squares method. The maximum drug plasma concentration (Cmax) and time to Cmax (Tmax) were directly determined from the observed data. The area under the plasma concentration–time curve from zero to the time of the final measurable sample (AUC0−t) was calculated using the linear-trapezoidal rule.

The test system of a further series is hepatoma. Also on record: method as in earlier work. Particulars: cited from earlier work; for tumor inhibition rate: previous pharmacological experiment.
The nature of series [2]: Stability of analytes in rat plasma samples (post-preparative, freeze–thaw, long-term cold storage). In kind it is in vitro ADME. Particulars: for Stability III R.E. / Stability III Concentration / Stability II R.E. / Stability II Concentration: plasma; for Stability III R.E. / Stability III Concentration: 60 days at -20° C; for Stability III Concentration / Stability II Concentration / Stability I Concentration: n = 6, mean ± SD; for Stability II R.E. / Stability II Concentration: three freeze-thaw cycles; for Stability I R.E. / Stability I Concentration: processed samples, auto-sampler 24 h. As to the method: Selectivity was assessed by comparing the chromatograms of six different batches of blank rat plasma to the corresponding spiked rat plasma. Linearity was assessed via weighted (1/x^2) analysis of the six different calibration curves. Intra- and inter-day precision (the relative standard deviation, RSD) and accuracy (the relative error, RE) were determined by analyzing the low-, intermediate-, and high-concentration QC samples (n = 6) on three different days. The matrix effect was investigated by comparing the peak areas of the analytes in the post-extraction spiked blank plasma samples at low and high analyte concentrations to the corresponding standard solutions. The extraction yield was determined by comparing the mean peak areas of the six extracted samples at low, intermediate, and high QC concentrations to the mean peak areas of the spike-after-extraction samples. Stability was assessed by analyzing the replicates (n = 6) of the low, intermediate and high QC samples during the sample storage and processing procedures. Freeze–thaw stability was determined after three freeze–thaw cycles. Post-preparation stability was estimated by analyzing the QC samples after 24 h at 4°C. Six aliquots of the QC samples were stored at −20°C for 60 days to determine their long-term stability.

As for `Cc1cccc(CC2CCC3C4CCCN5CCCC(CN3C2=O)C45)c1` (stereo not drawn) [3MBM, 14-(3-methylbenzyl)matrine], in series [1], the time of peak concentration (Tmax) was 1.47 h, the concentration peaked (Cmax) at 1050 ± 233 ng/mL, the half-life amounted to 4.97 ± 0.583 h and the k el is 3.92e-05 s⁻¹. In addition, in series [1], the MRT last was 7.4 h, the CL amounted to 59 ± 13 mL/min and the V stood at 25119 ± 5779 mL. Moreover, in series [1] (first AUC0-t line of Table 3), the AUC(0-t) was 7210 ng·h/mL. The compound further had an AUC(0-t) in series [1] (second AUC0-t line of Table 3) of 7480 ng·h/mL. Also, the “anti-hepatoma activity in vivo” value in the series on hepatoma (compared with cyclophosphamide) was “the same as those of the reference substances of cyclophosphamide”. Besides, in the series on hepatoma, the tumor inhibition rate is 61.83%. Also, in series [2] (spike 5 ng/ml), the “Stability III R.E.” value is recorded as -3.80%, the “Stability III Concentration” value is 4.81 ± 0.42 ng/mL, the “Stability II R.E.” value is listed as 2.87% and the “Stability II Concentration” value stood at 5.15 ± 0.35 ng/mL. Besides, in series [2] (spike 5 ng/ml), the “Stability I R.E.” value was -1.02% and the “Stability I Concentration” value was 4.94 ± 0.46 ng/mL. Besides, in series [2] (spike 800 ng/ml), the “Stability III R.E.” value came out at 1.22%, the “Stability III Concentration” value came out at 809.8 ± 30.9 ng/mL, the “Stability II R.E.” value was -1.82% and the “Stability II Concentration” value came to 785.4 ± 46.8 ng/mL. In addition, in series [2] (spike 800 ng/ml), the “Stability I R.E.” value is recorded as -1.03% and the “Stability I Concentration” value is 791.7 ± 13.6 ng/mL. Further, in series [2] (spike 1600 ng/ml), the “Stability III R.E.” value was 3.78%, the “Stability III Concentration” value came out at 1660 ± 63.9 ng/mL, the “Stability II R.E.” value was determined as 2.46% and the “Stability II Concentration” value came to 1639 ± 98.5 ng/mL. Also, in series [2] (spike 1600 ng/ml), the “Stability I R.E.” value is -0.40% and the “Stability I Concentration” value is 1593 ± 39.9 ng/mL.

As to `Cc1ccc(CC2CCC3C4CCCN5CCCC(CN3C2=O)C45)cc1` (stereo not drawn) [4MBM, 14-(4-methylbenzyl)matrine], in series [1], the Tmax is roughly 1.58 h, the peak concentration (Cmax) turned out to be 992 ± 275 ng/mL, the half-life is 4.92 ± 0.367 h and the k el was 3.94e-05 s⁻¹. In series [1], the MRT last is 7.67 h, the CL was found to be 59 ± 21 mL/min and the V was 24361 ± 6921 mL. In addition, the AUC(0-t) in series [1] (first AUC0-t line of Table 3) was 7680 ng·h/mL. For the same compound, the area under the curve AUC(0-t) in series [1] (second AUC0-t line of Table 3) is 7920 ng·h/mL. Moreover, the tumor inhibition rate in the series on hepatoma was 51.15%. In series [2] (spike 5 ng/ml), the “Stability III R.E.” value worked out at 2.60%, the “Stability III Concentration” value is 5.13 ± 0.37 ng/mL, the “Stability II Concentration” value was 4.98 ± 0.23 ng/mL and the “Stability I R.E.” value was 3.20%. In addition, in series [2] (spike 5 ng/ml), the “Stability I Concentration” value is 5.16 ± 0.29 ng/mL. In series [2] (spike 800 ng/ml), the “Stability III R.E.” value is -1.58%, the “Stability III Concentration” value came out at 787.4 ± 24.1 ng/mL, the “Stability II R.E.” value is listed as -1.30% and the “Stability II Concentration” value is 789.6 ± 67.9 ng/mL. In addition, in series [2] (spike 800 ng/ml), the “Stability I R.E.” value was determined as 3.11% and the “Stability I Concentration” value was determined as 824.9 ± 37.2 ng/mL. Moreover, in series [2] (spike 1600 ng/ml), the “Stability III R.E.” value is 2.23%, the “Stability III Concentration” value was determined as 1636 ± 36.6 ng/mL, the “Stability II R.E.” value was -1.04% and the “Stability II Concentration” value came out at 1583 ± 99.2 ng/mL. Further, in series [2] (spike 1600 ng/ml), the “Stability I R.E.” value is -1.42% and the “Stability I Concentration” value came out at 1577 ± 60.7 ng/mL.

As to `O=C1CCC[C@@H]2[C@H]3CCCN4CCC[C@@H](CN12)[C@@H]34` [MT, Matrine], in the series with hepatoma, the tumor inhibition rate is 39.69%.

The term Tmax denotes the time at which the peak concentration occurs. A word on the AUC(0-t): it is exposure summed from dosing to a finite time, without extrapolation to infinity. A higher AUC(0-t) goes with high exposure. For orientation: Cmax means the peak of the concentration-time curve. The half-life is the time needed for the level to fall by half in the phase considered.
